Measurements from patent US20250270172A1, “Pyrimidine Derivatives As Modulators of the 5-HT2A Serotonin Receptor Useful For The Treatment of Disorders Related Thereto” (Arena Pharmaceuticals, Inc., priority 2020, published 2025).
pIC50, pKi: −log10 of the molar value.

How the values were obtained:
5-HT2C = 5-HT2C (Homo sapiens (Human), UniProt P28335); assay: HTRF IP-One antagonist assay, 5-HT2C; assay type: cell-based; conditions: HEK293 cells stably expressing receptor, inositol phosphate accumulation, 80 nM 5-HT in Assay Buffer;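 further: clonal HEK293 line with low 5-HT2C density (10–20 fmol/mg), HTRF detection of IP-One, 10-point dose curves from 10 µM in 5-fold steps, triplicate points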
5-HT2A [1] = molecular target: T1, 5-HT2A (Homo sapiens (Human), UniProt P28223); assay: HTRF IP-One antagonist assay, 5-HT2A; assay type: cell-based; conditions: HEK293 cells stably expressing receptor, inositol phosphate accumulation, 80 nM 5-HT in Assay Buffer;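 further: clonal line with low receptor density (about 50–70 fmol/mg), 10-point dose-response from 10 µM in 5-fold steps, HTRF detection after 1 hr, triplicate points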
5-HT2A [2] = molecular target: T1, 5-HT2A; assay: Radioligand binding assay, [^3H]5-HT competition, 5-HT2A; conditions: [^3H]5-HT radioligand, membranes of HEK293 cells expressing recombinant 5-HT2A; Ki from IC50 by Cheng-Prusoff; read-out: 5-HT2A serotonin binding Ki value
5-HT2B = 5-HT2B (Homo sapiens (Human), UniProt P41595); assay: HTRF IP-One antagonist assay, 5-HT2B; assay type: cell-based; conditions: HEK293 cells stably expressing receptor, inositol phosphate accumulation, 80 nM 5-HT in Assay Buffer;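 further: clonal HEK293 line with low 5-HT2B expression (estimated 150-200 fmol/mg by radioligand binding), IP-One HTRF readout, 10-point curves from 10 µM in 5-fold steps, triplicate points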
5-HT2B, sequence (P41595 whole entry): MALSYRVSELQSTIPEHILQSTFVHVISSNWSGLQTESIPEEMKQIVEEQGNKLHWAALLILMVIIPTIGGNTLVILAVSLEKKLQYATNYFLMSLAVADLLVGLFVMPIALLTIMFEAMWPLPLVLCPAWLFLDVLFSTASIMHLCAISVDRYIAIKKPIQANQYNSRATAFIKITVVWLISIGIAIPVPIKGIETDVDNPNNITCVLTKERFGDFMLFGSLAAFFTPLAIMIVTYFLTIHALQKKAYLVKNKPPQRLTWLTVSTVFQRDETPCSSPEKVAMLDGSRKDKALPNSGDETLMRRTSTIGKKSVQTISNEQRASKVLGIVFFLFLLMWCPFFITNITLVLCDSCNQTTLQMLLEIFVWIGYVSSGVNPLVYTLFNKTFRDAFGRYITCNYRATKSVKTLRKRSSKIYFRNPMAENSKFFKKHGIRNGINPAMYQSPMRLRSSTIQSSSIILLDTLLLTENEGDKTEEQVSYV

5-HT2C, sequence (P28335 33-458): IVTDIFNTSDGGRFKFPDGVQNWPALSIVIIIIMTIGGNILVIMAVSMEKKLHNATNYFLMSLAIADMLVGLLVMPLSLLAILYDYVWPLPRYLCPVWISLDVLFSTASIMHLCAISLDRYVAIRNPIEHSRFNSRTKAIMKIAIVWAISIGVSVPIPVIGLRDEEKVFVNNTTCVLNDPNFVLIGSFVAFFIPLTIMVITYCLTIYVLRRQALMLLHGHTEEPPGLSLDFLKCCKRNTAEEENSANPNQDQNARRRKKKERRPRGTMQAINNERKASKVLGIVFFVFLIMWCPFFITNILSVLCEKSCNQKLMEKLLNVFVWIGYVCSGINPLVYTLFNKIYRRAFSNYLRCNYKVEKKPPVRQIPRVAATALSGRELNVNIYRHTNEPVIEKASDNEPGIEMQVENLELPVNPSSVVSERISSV
T1 sequence (P28223 whole entry): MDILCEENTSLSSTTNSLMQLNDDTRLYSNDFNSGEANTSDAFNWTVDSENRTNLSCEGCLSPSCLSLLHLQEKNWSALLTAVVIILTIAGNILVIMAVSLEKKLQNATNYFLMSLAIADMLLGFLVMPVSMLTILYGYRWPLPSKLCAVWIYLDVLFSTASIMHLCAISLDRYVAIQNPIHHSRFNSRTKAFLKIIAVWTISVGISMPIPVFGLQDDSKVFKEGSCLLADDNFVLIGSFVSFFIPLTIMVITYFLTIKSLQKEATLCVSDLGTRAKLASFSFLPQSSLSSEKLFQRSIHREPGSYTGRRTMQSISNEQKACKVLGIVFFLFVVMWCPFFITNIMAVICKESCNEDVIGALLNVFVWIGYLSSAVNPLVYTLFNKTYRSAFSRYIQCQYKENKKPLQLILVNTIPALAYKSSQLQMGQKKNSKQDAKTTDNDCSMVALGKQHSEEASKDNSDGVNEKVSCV

SMILES	pIC50 (5-HT2C)	pIC50 (5-HT2A [1])	pKi (5-HT2A [2])	pIC50 (5-HT2B)
COc1cccc(C(=O)Nc2ccc(OCCN3CCCC3)c(-c3c(C)ncnc3C)c2)c1 [Compound 273, N-(3-(4,6-dimethylpyrimidin-5-yl)-4-(2-(pyrrolidin-1-yl)ethoxy)phenyl)-3-methoxybenzamide]	4.00	8.77	8.95	
Cc1ncnc(C)c1-c1cc(NC(=O)c2ccc(F)cc2)ccc1OCCN1CCCC1 [Compound 272, N-(3-(4,6-dimethylpyrimidin-5-yl)-4-(2-(pyrrolidin-1-yl)ethoxy)phenyl)-4-fluorobenzamide]	4.00	8.11	8.61	5.57
Cc1ncnc(C)c1-c1cc(NC(=O)[C@@H]2C[C@H]2F)ccc1O[C@@H]1CCCNC1 [Compound 409, (1S,2R)—N-(3-(4,6-dimethylpyrimidin-5-yl)-4-(((R)-piperidin-3-yl)oxy)phenyl)-2-fluorocyclopropane-1-carboxamide]	4.00	7.72	8.18	5.53
Cc1ncoc1C(=O)Nc1ccc(OCCN2CCCC2)c(-c2c(C)ncnc2C)c1 [Compound 217, N-(3-(4,6-dimethylpyrimidin-5-yl)-4-(2-(pyrrolidin-1-yl)ethoxy)phenyl)-4-methyloxazole-5-carboxamide]	4.00	7.73	8.14	4.00
COCCNCCOc1ccc(NC(=O)C2CC2)cc1-c1c(C)ncnc1C [Compound 361, N-(3-(4,6-dimethylpyrimidin-5-yl)-4-(2-((2-methoxyethyl)amino)ethoxy)phenyl)cyclopropanecarboxamide]	4.00	8.03	8.36	4.00
CCC[C@@H](F)C(=O)Nc1ccc(OC[C@H]2CCCCN2)c(-c2c(C)ncnc2C)c1 [Compound 441, (R)—N-[3-(4,6-dimethylpyrimidin-5-yl)-4-[[(2R)-2-piperidyl]methoxy]phenyl]-2-fluoro-pentanamide]	4.00	7.92	8.25	
Cc1ncnc(C)c1-c1cc(NC(=O)Cc2cccc(F)c2)ccc1OCCN1CCC1 [Compound 312, N-(4-(2-(azetidin-1-yl)ethoxy)-3-(4,6-dimethylpyrimidin-5-yl)phenyl)-2-(3-fluorophenyl)acetamide]	4.00	8.62	9.09	
Cc1ccccc1C(=O)Nc1ccc(OCCN2CCC2)c(-c2c(C)ncnc2C)c1 [Compound 321, N-(4-(2-(azetidin-1-yl)ethoxy)-3-(4,6-dimethylpyrimidin-5-yl)phenyl)-2-methylbenzamide]	4.00	7.59		5.27
Cc1ncsc1C(=O)Nc1ccc(OCCN2CCC2)c(-c2c(C)ncnc2C)c1 [Compound 306, N-(4-(2-(azetidin-1-yl)ethoxy)-3-(4,6-dimethylpyrimidin-5-yl)phenyl)-4-methylthiazole-5-carboxamide]	4.00	8.21	8.58	
Cc1ncnc(C)c1-c1cc(NC(=O)c2cccn2C)ccc1OC[C@H]1CCCCN1 [Compound 436, (R)—N-(3-(4,6-dimethylpyrimidin-5-yl)-4-(piperidin-2-ylmethoxy)phenyl)-1-methyl-1H-pyrrole-2-carboxamide]	4.00	7.57	8.22	
Cc1ncnc(C)c1-c1cc(NC(=O)c2ncsc2C)ccc1OC[C@H]1CCCCN1 [Compound 435, (R)—N-(3-(4,6-dimethylpyrimidin-5-yl)-4-(piperidin-2-ylmethoxy)phenyl)-5-methylthiazole-4-carboxamide]	4.00	7.36	7.97	
Cc1ncnc(C)c1-c1cc(NC(=O)[C@@H]2C[C@H]2F)ccc1OCCN1CCCC1 [Compound 211, (1S,2R)—N-(3-(4,6-dimethylpyrimidin-5-yl)-4-(2-(pyrrolidin-1-yl)ethoxy)phenyl)-2-fluorocyclopropane-1-carboxamide]			8.68	
CO[C@H]1CCN(CCOc2ccc(NC(=O)C3CC3)cc2-c2c(C)ncnc2C)C1 [Compound 352, (S)—N-(3-(4,6-dimethylpyrimidin-5-yl)-4-(2-(3-methoxypyrrolidin-1-yl)ethoxy)phenyl)cyclopropanecarboxamide]			7.81	
Cc1ncnc(C)c1-c1cc(NC(=O)CCCF)ccc1OCCN1CCCC1 [Compound 282, N-[3-(4,6-dimethylpyrimidin-5-yl)-4-(2-pyrrolidin-1-ylethoxy)phenyl]-4-fluoro-butanamide]			8.05	
Cc1ncnc(C)c1-c1cc(NC(=O)c2ccncc2F)ccc1OCCN1CCC1 [Compound 332, N-(4-(2-(azetidin-1-yl)ethoxy)-3-(4,6-dimethylpyrimidin-5-yl)phenyl)-3-fluoroisonicotinamide]			7.73	
Cc1ncnc(C)c1-c1cc(NC(=O)C2CC2)ccc1OC[C@H]1CCN1 [Compound 405, N-[4-[[(2R)-azetidin-2-yl]methoxy]-3-(4,6-dimethylpyrimidin-5-yl)phenyl]cyclopropanecarboxamide]			7.28	
Cc1ncnc(C)c1-c1cc(NC(=O)c2ccccc2)ccc1OCCN1C[C@@H]2C[C@H]1CO2 [Compound 381, N-(4-(2-((1S,4S)-2-oxa-5-azabicyclo[2.2.1]heptan-5-yl)ethoxy)-3-(4,6-dimethylpyrimidin-5-yl)phenyl)benzamide]			8.26	

SMILES	pIC50 (5-HT2C)	pIC50 (5-HT2A [1])	pKi (5-HT2A [2])	pIC50 (5-HT2B)
Cc1ncnc(C)c1-c1cc(NC(=O)C2(c3ccccc3)CC2)ccc1OCCN1CCCC1 [Compound 253, N-(3-(4,6-dimethylpyrimidin-5-yl)-4-(2-(pyrrolidin-1-yl)ethoxy)phenyl)-1-phenylcyclopropane-1-carboxamide]			8.20	
CC(=N)NCCOc1ccc(NC(=O)C2CC2)cc1-c1c(C)ncnc1C [Compound 451, N-(4-(2-acetimidamidoethoxy)-3-(4,6-dimethylpyrimidin-5-yl)phenyl)cyclopropanecarboxamide]			7.28	
Cc1ccc(C(=O)Nc2ccc(OCCN3CCCC3)c(-c3c(C)ncnc3C)c2)cc1 [Compound 301, N-(3-(4,6-dimethylpyrimidin-5-yl)-4-(2-(pyrrolidin-1-yl)ethoxy)phenyl)-4-methylbenzamide]			8.47	
Cc1ncnc(C)c1-c1cc(NC(=O)c2ccn(C)c2)ccc1OCCN1CCCC1 [Compound 201, N-(3-(4,6-dimethylpyrimidin-5-yl)-4-(2-(pyrrolidin-1-yl)ethoxy)phenyl)-1-methyl-1H-pyrrole-3-carboxamide]			7.48	
Cc1ncnc(C)c1-c1cc(NC(=O)c2ccn(C)n2)ccc1OCCN1CCCC1 [Compound 203, N-(3-(4,6-dimethylpyrimidin-5-yl)-4-(2-(pyrrolidin-1-yl)ethoxy)phenyl)-1-methyl-1H-pyrazole-3-carboxamide]			6.11	
Cc1ncnc(C)c1-c1cc(NC(=O)[C@H]2C[C@H]2F)ccc1OCCN1CCCC1 [Compound 212, (1R,2R)—N-(3-(4,6-dimethylpyrimidin-5-yl)-4-(2-(pyrrolidin-1-yl)ethoxy)phenyl)-2-fluorocyclopropane-1-carboxamide]			8.25	
Cc1ncnc(C)c1-c1cc(NC(=O)c2cccc(F)c2)ccc1OCCN1CCCC1 [Compound 297, N-(3-(4,6-dimethylpyrimidin-5-yl)-4-(2-(pyrrolidin-1-yl)ethoxy)phenyl)-3-fluorobenzamide]			8.57	
Cc1ncnc(C)c1-c1cc(NC(=O)C2(CF)CC2)ccc1OCCN1CCC1 [Compound 328, N-(4-(2-(azetidin-1-yl)ethoxy)-3-(4,6-dimethylpyrimidin-5-yl)phenyl)-1-(fluoromethyl)cyclopropane-1-carboxamide]			7.87	
CCOCC(=O)Nc1ccc(OCCN2CCCC2)c(-c2c(C)ncnc2C)c1 [Compound 234, N-(3-(4,6-dimethylpyrimidin-5-yl)-4-(2-(pyrrolidin-1-yl)ethoxy)phenyl)-2-ethoxyacetamide]			6.92	
CCOC1CC1C(=O)Nc1ccc(OCCN2CCC2)c(-c2c(C)ncnc2C)c1 (centres unmarked) [Compound 317, N-(4-(2-(azetidin-1-yl)ethoxy)-3-(4,6-dimethylpyrimidin-5-yl)phenyl)-2-ethoxycyclopropane-1-carboxamide]			7.02	
Cc1ncnc(C)c1-c1cc(NC(=O)CC2CCCO2)ccc1OCCN1CCCC1 (centres unmarked) [Compound 229, N-(3-(4,6-dimethylpyrimidin-5-yl)-4-(2-(pyrrolidin-1-yl)ethoxy)phenyl)-2-(tetrahydrofuran-2-yl)acetamide]			6.95	
COCCNCCOc1ccc(NC(=O)c2cccc(OC)c2)cc1-c1c(C)ncnc1C [Compound 372, N-(3-(4,6-dimethylpyrimidin-5-yl)-4-(2-((2-methoxyethyl)amino)ethoxy)phenyl)-3-methoxybenzamide]			8.70	
COCCNCCOc1ccc(NC(=O)c2ccccc2)cc1-c1c(C)ncnc1C [Compound 371, N-(3-(4,6-dimethylpyrimidin-5-yl)-4-(2-((2-methoxyethyl)amino)ethoxy)phenyl)benzamide]			8.32	
Cc1ncnc(C)c1-c1cc(NC(=O)[C@@H]2C[C@@H]2F)ccc1OCCN1CCCC1 [Compound 213, (1S,2S)—N-(3-(4,6-dimethylpyrimidin-5-yl)-4-(2-(pyrrolidin-1-yl)ethoxy)phenyl)-2-fluorocyclopropane-1-carboxamide]			8.34	
Cc1nc(CC(=O)Nc2ccc(OCCN3CCCC3)c(-c3c(C)ncnc3C)c2)no1 [Compound 261, N-(3-(4,6-dimethylpyrimidin-5-yl)-4-(2-(pyrrolidin-1-yl)ethoxy)phenyl)-2-(5-methyl-1,2,4-oxadiazol-3-yl)acetamide]			7.04	
Cc1ncnc(C)c1-c1cc(NC(=O)CNC2CCCC2)ccc1OCCN1CCCC1 [Compound 289, 2-(cyclopentylamino)-N-(3-(4,6-dimethylpyrimidin-5-yl)-4-(2-(pyrrolidin-1-yl)ethoxy)phenyl)acetamide]			6.91	
